Measured values: US20230265116A1, “DEGRADATION OF (EGFR) BY CONJUGATION OF EGFR INHIBITORS WITH E3 LIGASE LIGAND AND METHODS OF USE” (BEIGENE, LTD., priority 2020, published 2023)
Like-named read-outs stand apart in the source and are kept apart here.

What was measured:
[1] = molecular target: T1, EGFR L858R/T790M/C797S (BaF3-LTC cells) (Homo sapiens, UniProt P00533, C797S/L858R/T790M); assay: EGFR degradation HTRF assay, BaF3-LTC cells; type: cell-based
T1 construct: expressed in transfected cells; host or cells: BaF3
Summary of the method: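 EGFR remaining after a 16 h, 37 °C exposure (8 doses, 5-fold steps from 10 uM final, 0.2% DMSO) was quantified by HTRF antibodies in cell lysate. Percent inhibition relative to DMSO control was fitted by four-parameter logistic to give DC50; Dmax denotes maximal degradation.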

[2] = tested on: EGFR Del19/T790M/C797S (H1975-clone #28); assay: EGFR degradation HTRF assay, H1975-clone #28 DTC cells; type: cell-based
Summary of the method: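 Compounds (top 10 uM, 5-fold, 8 points, 0.2% DMSO) incubated 16 h at 37 °C on homozygous clones: #23 Del19/C797S, #28 Del19/T790M/C797S, exogenous EGFR only in H1975. HTRF on lysates quantified remaining EGFR relative to DMSO; four-parameter fit gave DC50 and Dmax.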

[3] = BaF3-LTC cells; EGFR degradation, IC50 (DC50) from curve fit; read-out: DC50(nM) BaF3-LTC
[4] = BaF3-LTC cells; maximum percentage of inhibition (degradation); read-out: Dmax (%) BaF3-LTC
[5] = H1975 # 28 DTC cells; EGFR degradation, IC50 (DC50) from curve fit; read-out: DC50(nM) H1975 # 28 DTC
[6] = H1975 # 28 DTC cells; maximum percentage of inhibition (degradation)
[7] = read-out: DC50(nM) BaF3-LTC; BaF3-LTC cells; EGFR degradation, IC50 (DC50) from curve fit
[8] = read-out: DC50(nM) H1975 # 28 DTC; H1975 # 28 DTC cells; EGFR degradation, IC50 (DC50) from curve fit
[9] = read-out: Dmax (%) BaF3-LTC, BaF3-LTC cells; maximum percentage of inhibition (degradation)

T1 sequence (P00533 25-1210 T790M/C797S/L858R): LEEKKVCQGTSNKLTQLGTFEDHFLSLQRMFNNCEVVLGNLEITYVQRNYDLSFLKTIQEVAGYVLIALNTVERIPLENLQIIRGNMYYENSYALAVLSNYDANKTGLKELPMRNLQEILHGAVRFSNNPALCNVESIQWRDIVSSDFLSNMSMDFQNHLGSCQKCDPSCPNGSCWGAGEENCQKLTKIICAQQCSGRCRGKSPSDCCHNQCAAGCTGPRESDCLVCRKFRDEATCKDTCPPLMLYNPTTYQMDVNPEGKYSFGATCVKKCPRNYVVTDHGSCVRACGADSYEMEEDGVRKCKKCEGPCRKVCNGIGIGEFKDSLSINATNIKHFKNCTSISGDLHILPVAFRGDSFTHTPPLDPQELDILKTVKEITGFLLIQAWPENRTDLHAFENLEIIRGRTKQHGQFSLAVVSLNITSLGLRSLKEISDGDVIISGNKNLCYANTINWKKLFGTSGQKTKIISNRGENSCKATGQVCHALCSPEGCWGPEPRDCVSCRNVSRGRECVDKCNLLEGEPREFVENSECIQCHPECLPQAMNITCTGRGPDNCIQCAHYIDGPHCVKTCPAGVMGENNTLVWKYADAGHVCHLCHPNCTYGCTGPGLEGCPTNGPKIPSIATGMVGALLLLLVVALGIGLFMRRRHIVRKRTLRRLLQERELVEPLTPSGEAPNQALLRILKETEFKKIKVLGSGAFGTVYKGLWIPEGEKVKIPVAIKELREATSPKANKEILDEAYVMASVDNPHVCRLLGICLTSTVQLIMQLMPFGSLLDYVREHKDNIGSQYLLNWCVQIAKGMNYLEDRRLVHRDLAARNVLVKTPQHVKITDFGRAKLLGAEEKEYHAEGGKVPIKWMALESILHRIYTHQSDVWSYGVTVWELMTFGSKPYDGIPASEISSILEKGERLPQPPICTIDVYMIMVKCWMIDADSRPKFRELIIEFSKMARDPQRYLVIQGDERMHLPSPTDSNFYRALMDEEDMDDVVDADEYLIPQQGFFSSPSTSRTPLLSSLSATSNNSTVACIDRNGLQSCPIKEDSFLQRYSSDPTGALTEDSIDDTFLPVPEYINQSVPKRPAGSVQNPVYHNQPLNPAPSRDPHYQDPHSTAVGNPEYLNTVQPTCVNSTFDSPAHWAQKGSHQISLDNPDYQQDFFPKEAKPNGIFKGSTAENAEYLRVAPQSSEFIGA

`COc1cc(N2CCC(N3CCN(C(=O)[C@@H]4CCN(c5cc(F)c([C@H]6CCC(=O)NC6=O)c(F)c5)C4)CC3)CC2)c(C)cc1Nc1ncc(Br)c(Nc2ccc3c(=O)n(C)ncc3c2P(C)(C)=O)n1` [Example 527, (R)-3-(4-((R)-3-(4-(1-(4-((5-bromo-4-((5-(dimethylphosphoryl)-2-methyl-1-oxo-1,2-dihydrophthalazin-6-yl)amino)pyrimidin-2-yl)amino)-5-methoxy-2-methylphenyl)piperidin-4-yl)piperazine-1-carbonyl)pyrrolidin-1-yl)-2,6-difluorophenyl)piperidine-2,6-dione] showed a DC50 [1, 3] of 1.77 nM, a Dmax [1, 4] of 93.4% and a DC50 [2, 5] of 0.583 nM. For the same molecule, the “Dmax (%) H1975 # 28 DTC” value [2, 6] was 85.27%.
`CCOc1cc(N2CCC(N3CCN(C(=O)[C@H]4CN(c5cc(F)c([C@H]6CCC(=O)NC6=O)c(F)c5)CC4(C)C)CC3)CC2)c(C)cc1Nc1ncc(Br)c(Nc2ccc3nc(C)ccc3c2P(C)(C)=O)n1` [Example 727, (R)-3-(4-((R)-4-(4-(1-(4-((5-bromo-4-((5-(dimethylphosphoryl)-2-methylquinolin-6-yl)amino)pyrimidin-2-yl)amino)-5-ethoxy-2-methylphenyl)piperidin-4-yl)piperazine-1-carbonyl)-3,3-dimethylpyrrolidin-1-yl)-2,6-difluorophenyl)piperidine-2,6-dione] was tested, and the DC50 [1, 3] was 8.61 nM, the DC50 [2, 5] was 4.29 nM and the “Dmax (%) H1975 # 28 DTC” value [2, 6] was 77.39%.
`CCc1ccc2c(P(C)(C)=O)c(Nc3nc(Nc4cc(C5CC5)c(N5CCC(N6CCN(CCc7cccc8c7oc(=O)n8C7CCC(=O)NC7=O)CC6)CC5)cc4OC)ncc3Br)ccc2n1` (stereo not drawn) [Example 631, 3-(7-(2-(4-(1-(4-((5-bromo-4-((5-(dimethylphosphoryl)-2-ethylquinolin-6-yl)amino)pyrimidin-2-yl)amino)-2-cyclopropyl-5-methoxyphenyl)piperidin-4-yl)piperazin-1-yl)ethyl)-2-oxobenzo[d]oxazol-3(2H)-yl)piperidine-2,6-dione] gave a DC50 [1, 3] of 9.33 nM, a Dmax [1, 4] of 86.8% and a DC50 [2, 5] of 1.04 nM. For the same molecule, the “Dmax (%) H1975 # 28 DTC” value [2, 6] was 82.5%.
`CCOc1cc(N2CCC(N3CCN(CCc4ccc5c(c4)oc(=O)n5C4CCC(=O)NC4=O)CC3)CC2)c(C)cc1Nc1ncc(Br)c(Nc2ccc3nc(CC)ccc3c2P(C)(C)=O)n1` (stereo not drawn) [Example 552, 3-(6-(2-(4-(1-(4-((5-bromo-4-((5-(dimethylphosphoryl)-2-ethylquinolin-6-yl)amino)pyrimidin-2-yl)amino)-5-ethoxy-2-methylphenyl)piperidin-4-yl)piperazin-1-yl)ethyl)-2-oxobenzo[d]oxazol-3 (2H)-yl)piperidine-2,6-dione] was tested, and the DC50 [1, 3] was 4.35 nM, the Dmax [1, 4] was 85.7% and the DC50 [2, 5] was 0.367 nM. The “Dmax (%) H1975 # 28 DTC” value [2, 6] was 71.85%.
`CCOc1cc(N2CCC(N3CCN(CCc4cc(F)c([C@H]5CCC(=O)NC5=O)c(F)c4)CC3)CC2)c(CC)cc1Nc1ncc(C)c(Nc2cc(F)c3nc(CC)ccc3c2P(C)(C)=O)n1` [Example 733, (R)-3-(4-(2-(4-(1-(4-((4-((5-(dimethylphosphoryl)-2-ethyl-8-fluoroquinolin-6-yl)amino)-5-methylpyrimidin-2-yl)amino)-5-ethoxy-2-ethylphenyl)piperidin-4-yl)piperazin-1-yl)ethyl)-2,6-difluorophenyl)piperidine-2,6-dione] was tested, and the DC50 [1, 3] was 89.9 nM, the DC50 [2, 5] was 7.25 nM and the “Dmax (%) H1975 # 28 DTC” value [2, 6] was 84.52%.
`CCOc1cc(N2CCC(N3CCN(CCc4c(F)cc5c(oc(=O)n5C5CCC(=O)NC5=O)c4F)CC3)CC2)c(CC)cc1Nc1ncc(Br)c(Nc2ccc3nc(CC)ccc3c2P(C)(C)=O)n1` (stereo not drawn) [Example 635, 3-(6-(2-(4-(1-(4-((5-bromo-4-((5-(dimethylphosphoryl)-2-ethylquinolin-6-yl)amino)pyrimidin-2-yl)amino)-5-ethoxy-2-ethylphenyl)piperidin-4-yl)piperazin-1-yl)ethyl)-5,7-difluoro-2-oxobenzo[d]oxazol-3(2H)-yl)piperidine-2,6-dione] gave a DC50 [1, 3] of 11 nM, a Dmax [1, 4] of 90.7% and a DC50 [2, 5] of 1.37 nM. For the same molecule, the “Dmax (%) H1975 # 28 DTC” value [2, 6] was 77.57%.
`CCc1cc(Nc2ncc(Br)c(Nc3ccc4nc(C)ccc4c3P(C)(C)=O)n2)c(OC2CC2)cc1N1CCC(N2CCN(CCc3cccc4c3n(C)c(=O)n4C3CCC(=O)NC3=O)CC2)CC1` (stereo not drawn) [Example 642, 3-(4-(2-(4-(1-(4-((5-bromo-4-((5-(dimethylphosphoryl)-2-methylquinolin-6-yl)amino)pyrimidin-2-yl)amino)-5-cyclopropoxy-2-ethylphenyl)piperidin-4-yl)piperazin-1-yl)ethyl)-3-methyl-2-oxo-2,3-dihydro-1H-benzo[d]imidazol-1-yl)piperidine-2,6-dione] showed a DC50 [1, 3] of 1.42 nM, a Dmax [1, 4] of 93.7% and a DC50 [2, 5] of 0.617 nM. For the same molecule, the “Dmax (%) H1975 # 28 DTC” value [2, 6] was 76.78%.
In the case of `CCOc1cc(N2CCC(N3CCN(CCCc4cc(F)cc5c4oc(=O)n5C4CCC(=O)NC4=O)CC3)CC2)c(CC)cc1Nc1ncc(Br)c(Nc2ccc3nc(CC)ncc3c2P(C)(C)=O)n1` (stereo not drawn) [Example 617, 3-(7-(3-(4-(1-(4-((5-bromo-4-((5-(dimethylphosphoryl)-2-ethylquinazolin-6-yl)amino)pyrimidin-2-yl)amino)-5-ethoxy-2-ethylphenyl)piperidin-4-yl)piperazin-1-yl)propyl)-5-fluoro-2-oxobenzo[d]oxazol-3(2H)-yl)piperidine-2,6-dione], the “Dmax (%) BaF3-LTC” value ([1]; BaF3-LTC cells; maximum percentage of inhibition (degradation)) is reported as 91.31%, the DC50 [1, 7] is reported as 5.77 nM and the “Dmax (%) H1975 # 28 DTC” value [2, 6] is reported as 74.31%. It also gave a DC50 [2, 8] of 1.15 nM.
With `CCc1ccc2c(P(C)(C)=O)c(Nc3nc(Nc4cc(CC)c(N5CCC(N6CCN(CCc7cc(F)c([C@H]8CCC(=O)NC8=O)c(F)c7)CC6)CC5)cc4OC)ncc3Cl)ccc2n1` [Example 744, (R)-3-(4-(2-(4-(1-(4-((5-chloro-4-((5-(dimethylphosphoryl)-2-ethylquinolin-6-yl)amino)pyrimidin-2-yl)amino)-2-ethyl-5-methoxyphenyl)piperidin-4-yl)piperazin-1-yl)ethyl)-2,6-difluorophenyl)piperidine-2,6-dione] the DC50 [1, 3] was 5.87 nM, the DC50 [2, 5] was 0.653 nM and the “Dmax (%) H1975 # 28 DTC” value [2, 6] was 84.24%.
With `CCc1cc(Nc2ncc(Br)c(Nc3ccc4nc(C)ccc4c3P(C)(C)=O)n2)c(OC)cc1N1CCC(N2CCN(C(=O)C3CN(c4cccc5c4oc(=O)n5C4CCC(=O)NC4=O)C3)CC2)CC1` (stereo not drawn) [Example 519, 3-(7-(3-(4-(1-(4-((5-bromo-4-((5-(dimethylphosphoryl)-2-methylquinolin-6-yl)amino)pyrimidin-2-yl)amino)-2-ethyl-5-methoxyphenyl)piperidin-4-yl)piperazine-1-carbonyl)azetidin-1-yl)-2-oxobenzo[d]oxazol-3(2H)-yl)piperidine-2,6-dione] the DC50 [1, 7] was 1.19 nM, the Dmax [1, 9] was 92.1% and the “Dmax (%) H1975 # 28 DTC” value [2, 6] was 74.38%. It also gave a DC50 [2, 8] of 0.378 nM.
`CCOc1cc(N2CCC(N3CCN(C(=O)CCC4CN(c5cccc6c5oc(=O)n6C5CCC(=O)NC5=O)C4)CC3)CC2)c(CC)cc1Nc1ncc(Br)c(Nc2ccc3nc(CC)ccc3c2P(C)(C)=O)n1` (stereo not drawn) [Example 625, 3-(7-(3-(3-(4-(1-(4-((5-bromo-4-((5-(dimethylphosphoryl)-2-ethylquinolin-6-yl)amino)pyrimidin-2-yl)amino)-5-ethoxy-2-ethylphenyl)piperidin-4-yl)piperazin-1-yl)-3-oxopropyl)azetidin-1-yl)-2-oxobenzo[d]oxazol-3(2H)-yl)piperidine-2,6-dione] was tested, and the DC50 [1, 7] was 11 nM, the Dmax [1, 9] was 88.8% and the “Dmax (%) H1975 # 28 DTC” value [2, 6] was 80.1%. For the same molecule, the DC50 [2, 8] was 1.86 nM.
In the case of `CCc1cc(Nc2ncc(Br)c(Nc3ccc4nc(C)ccc4c3P(C)(C)=O)n2)c(OC2CC2)cc1N1CCC(N2CCN(CCCc3cc(F)cc4c3oc(=O)n4C3CCC(=O)NC3=O)CC2)CC1` (stereo not drawn) [Example 607, 3-(7-(3-(4-(1-(4-((5-bromo-4-((5-(dimethylphosphoryl)-2-methylquinolin-6-yl)amino)pyrimidin-2-yl)amino)-5-cyclopropoxy-2-ethylphenyl)piperidin-4-yl)piperazin-1-yl)propyl)-5-fluoro-2-oxobenzo[d]oxazol-3(2H)-yl)piperidine-2,6-dione], the DC50 [1, 3] is reported as 14.2 nM, the Dmax [1, 4] is reported as 86.8% and the DC50 [2, 5] is reported as 1.07 nM. The “Dmax (%) H1975 # 28 DTC” value [2, 6] was 78.76%.
For `CCOc1cc(N2CCC(N3CCN(CCc4cc(F)c([C@H]5CCC(=O)NC5=O)c(F)c4)CC3)CC2)c(CC)cc1Nc1ncc(Br)c(Nc2ccc3nc(C)ncc3c2P(C)(C)=O)n1` [Example 738, (R)-3-(4-(2-(4-(1-(4-((5-bromo-4-((5-(dimethylphosphoryl)-2-methylquinazolin-6-yl)amino)pyrimidin-2-yl)amino)-5-ethoxy-2-ethylphenyl)piperidin-4-yl)piperazin-1-yl)ethyl)-2,6-difluorophenyl)piperidine-2,6-dione], the DC50 [1, 3] was 6.73 nM, the DC50 [2, 5] was 0.64 nM and the “Dmax (%) H1975 # 28 DTC” value [2, 6] was 84.3%.
